Test results published in ChEMBL document CHEMBL1799932, “Antimalarial pyrido[1,2-a]benzimidazoles” (J Med Chem, 2011).
pIC50: −log10 of the molar value.

How the values were obtained:
[1] = test system: Rattus norvegicus; assay: Oral bioavailability in fasted Sprague-Dawley rat assessed as 1-(2-Diethylaminoethylamino)-3-[4-(trifluoromethyl)phenyl]-pyrido[1,2-a]benzimidazole-4-carbonitrile at 20 mg/kg, po after 48 hrs by LC-MS analysis; format: ADME, organism-based; conditions: in vivo
[2] = test system: Rattus norvegicus; assay: AUC (0 to tlast) in fasted Sprague-Dawley rat assessed as 1-(2-Diethylaminoethylamino)-3-[4-(trifluoromethyl)phenyl]-pyrido[1,2-a]benzimidazole-4-carbonitrile at 5 mg/kg, iv after 48 hrs by LC-MS analysis; format: ADME, organism-based, Plasma; design: time < 48 hr, dose 5 mg/kg, route intravenous; conditions: in vivo
[3] = test system: Rattus norvegicus; assay: Apparent half life in fasted Sprague-Dawley rat assessed as 1-(2-Diethylaminoethylamino)-3-[4-(trifluoromethyl)phenyl]-pyrido[1,2-a]benzimidazole-4-carbonitrile at 20 mg/kg, po after 48 hrs by LC-MS analysis; format: ADME, organism-based; design: dose 20 mg/kg, route oral; conditions: in vivo
[4] = test system: Rattus norvegicus; assay: Tmax in fasted Sprague-Dawley rat assessed as 1-(2-Ethylaminoethylamino)-3-[4-(trifluoromethyl)phenyl]- pyrido[1,2-a]benzimidazole-4-carbonitrile level at 20 mg/kg, po after 48 hrs by LC-MS analysis; format: ADME, organism-based; design: dose 20 mg/kg, route oral; conditions: in vivo
[5] = test system: Plasmodium berghei; assay: Antimalarial activity against GFP-transfected Plasmodium berghei strain ANKA infected in NMRI mouse assessed as reduction in parasitemia at 50 mg/kg/day, ip administered for 4 consecutive days measured 24 hrs after last treatment by FACS analysis relative to control; format: functional; design: scale not given: the % may be the effect or the level left; conditions: route intraperitoneal
[6] = test system: Rattus norvegicus; assay: Drug excretion in fasted Sprague-Dawley rat urine assessed as 1-(2-Ethylaminoethylamino)-3-[4-(trifluoromethyl)phenyl]- pyrido[1,2-a]benzimidazole-4-carbonitrile level at 20 mg/kg, po after 48 hrs by LC-MS analysis; format: ADME, organism-based; design: dose 20 mg/kg, route oral; conditions: in vivo
[7] = test system: Rattus norvegicus; assay: Apparent half life in fasted Sprague-Dawley rat assessed as 1-(2-Diethylaminoethylamino)-3-[4-(trifluoromethyl)phenyl]-pyrido[1,2-a]benzimidazole-4-carbonitrile at 5 mg/kg, iv after 48 hrs by LC-MS analysis; format: ADME, organism-based; design: dose 5 mg/kg, route intravenous; conditions: in vivo
[8] = Metabolic stability in mouse liver microsomes assessed as degradation half life after 60 mins by LC-MS analysis; format: ADME, Microsome
[9] = test system: Rattus norvegicus; assay: AUC (0 to tlast) in fasted Sprague-Dawley rat assessed as 1-(2-Diethylaminoethylamino)-3-[4-(trifluoromethyl)phenyl]-pyrido[1,2-a]benzimidazole-4-carbonitrile at 20 mg/kg, po after 48 hrs by LC-MS analysis; format: ADME, organism-based, Plasma; design: time < 48 hr, dose 20 mg/kg, route oral; conditions: in vivo
[10] = Metabolic stability in human liver microsomes assessed as intrinsic clearance per mg protein after 60 mins by LC-MS analysis; format: ADME, Microsome
[11] = test system: Plasmodium berghei; assay: Antimalarial activity against GFP-transfected Plasmodium berghei strain ANKA infected in NMRI mouse assessed as increase in median survival time at 50 mg/kg/day, ip administered for 4 days measured up to 30 days post infection (reference value: 5 to 7 days); format: functional; conditions: route intraperitoneal
[12] = test system: L6; assay: Cytotoxicity at rat L6 cells after 72 hrs by microplate alamar blue assay; format: cell-based; conditions: l6
[13] = test system: Rattus norvegicus; assay: Tmax in fasted Sprague-Dawley rat assessed as 1-(2-Ethylaminoethylamino)-3-[4-(trifluoromethyl)phenyl]- pyrido[1,2-a]benzimidazole-4-carbonitrile level at 5 mg/kg, iv after 48 hrs by LC-MS analysis; format: ADME, organism-based; design: dose 5 mg/kg, route intravenous; conditions: in vivo
[14] = test system: Rattus norvegicus; assay: Cmax in fasted Sprague-Dawley rat assessed as 1-(2-Diethylaminoethylamino)-3-[4-(trifluoromethyl)phenyl]-pyrido[1,2-a]benzimidazole-4-carbonitrile at 20 mg/kg, po after 48 hrs by LC-MS analysis; format: ADME, organism-based; design: dose 20 mg/kg, route oral; conditions: in vivo
[15] = test system: Plasmodium berghei; assay: Antimalarial activity against GFP-transfected Plasmodium berghei strain ANKA infected in NMRI mouse assessed as reduction in parasitemia at 50 mg/kg, po administered as single dose measured on day 4 by FACS analysis; format: functional; design: scale not given: the % may be the effect or the level left
[16] = test system: Plasmodium berghei; assay: Antimalarial activity against GFP-transfected Plasmodium berghei strain ANKA infected in NMRI mouse assessed as increase in mean survival time at 25 mg/kg, po administered as single dose (reference value: 5 days )
[17] = test system: Plasma; assay: Plasma protein binding in mouse assessed as 1-(2-Diethylaminoethylamino)-3-[4-(trifluoromethyl)phenyl]-pyrido[1,2-a]benzimidazole-4-carbonitrile at 5 mg/kg, iv after 48 hrs by LC-MS analysis; format: ADME, organism-based; design: dose 5 mg/kg, route intravenous; conditions: in vivo
[18] = test system: Plasmodium berghei; assay: Antimalarial activity against GFP-transfected Plasmodium berghei strain ANKA infected in NMRI mouse assessed as reduction in parasitemia at 25 mg/kg, po administered as single dose measured on day 2 by FACS analysis; format: functional; design: scale not given: the % may be the effect or the level left
[19] = Metabolic stability in rat liver microsomes assessed as intrinsic clearance per mg protein after 60 mins by LC-MS analysis; format: ADME, Microsome
[20] = test system: Plasmodium berghei; assay: Antimalarial activity against GFP-transfected Plasmodium berghei strain ANKA infected in NMRI mouse assessed as reduction in parasitemia at 25 mg/kg, po administered as single dose measured on day 5 by FACS analysis; format: functional; design: scale not given: the % may be the effect or the level left
[21] = test system: Plasmodium berghei; assay: Antimalarial activity against GFP-transfected Plasmodium berghei strain ANKA infected in NMRI mouse assessed as increase in mean survival time at 50 mg/kg, po administered as single dose (reference value: 5 days )
[22] = test system: Rattus norvegicus; assay: Drug excretion in fasted Sprague-Dawley rat urine assessed as 1-(2-Ethylaminoethylamino)-3-[4-(trifluoromethyl)phenyl]- pyrido[1,2-a]benzimidazole-4-carbonitrile level at 5 mg/kg, iv after 48 hrs by LC-MS analysis; format: ADME, organism-based; design: dose 5 mg/kg, route intravenous; conditions: in vivo
[23] = test system: Plasmodium berghei; assay: Antimalarial activity against GFP-transfected Plasmodium berghei strain ANKA infected in NMRI mouse assessed as reduction in parasitemia at 100 mg/kg/day, po administered for 4 consecutive days measured 24 hrs after last treatment by FACS analysis relative to control; format: functional; design: scale not given: the % may be the effect or the level left
[24] = test system: Rattus norvegicus; assay: AUC (0 to tlast) in fasted Sprague-Dawley rat assessed as 1-(2-Ethylaminoethylamino)-3-[4-(trifluoromethyl)phenyl]- pyrido[1,2-a]benzimidazole-4-carbonitrile level at 20 mg/kg, po after 48 hrs by LC-MS analysis; format: ADME, organism-based, Plasma; design: time < 48 hr, dose 20 mg/kg, route oral; conditions: in vivo
[25] = Metabolic stability in rat liver microsomes assessed as degradation half life after 60 mins by LC-MS analysis; format: ADME, Microsome
[26] = test system: Rattus norvegicus; assay: Apparent volume of distribution in fasted Sprague-Dawley rat assessed as 1-(2-Diethylaminoethylamino)-3-[4-(trifluoromethyl)phenyl]-pyrido[1,2-a]benzimidazole-4-carbonitrile at 5 mg/kg, iv after 48 hrs by LC-MS analysis; format: ADME, organism-based; design: dose 5 mg/kg, route intravenous; conditions: in vivo
[27] = test system: Plasmodium berghei; assay: Antimalarial activity against GFP-transfected Plasmodium berghei strain ANKA infected in NMRI mouse assessed as reduction in parasitemia at 50 mg/kg, po administered as single dose measured on day 3 by FACS analysis; format: functional; design: scale not given: the % may be the effect or the level left
[28] = Metabolic stability in mouse liver microsomes assessed as intrinsic clearance per mg protein after 60 mins by LC-MS analysis; format: ADME, Microsome
[29] = test system: Rattus norvegicus; assay: Tmax in fasted Sprague-Dawley rat assessed as 1-(2-Diethylaminoethylamino)-3-[4-(trifluoromethyl)phenyl]-pyrido[1,2-a]benzimidazole-4-carbonitrile at 20 mg/kg, po after 48 hrs by LC-MS analysis; format: ADME, organism-based; design: dose 20 mg/kg, route oral; conditions: in vivo
[30] = test system: Plasmodium berghei; assay: Antimalarial activity against GFP-transfected Plasmodium berghei strain ANKA infected in NMRI mouse assessed as reduction in parasitemia at 25 mg/kg, po administered as single dose measured on day 3 by FACS analysis; format: functional; design: scale not given: the % may be the effect or the level left
[31] = test system: Plasma; assay: Plasma protein binding in human assessed as 1-(2-Diethylaminoethylamino)-3-[4-(trifluoromethyl)phenyl]-pyrido[1,2-a]benzimidazole-4-carbonitrile at 5 mg/kg, iv after 48 hrs by LC-MS analysis; format: ADME, organism-based; design: dose 5 mg/kg, route intravenous; conditions: in vivo

Compound: CCN(CC)CCNc1cc(-c2ccc(C(F)(F)F)cc2)c(C#N)c2nc3ccccc3n12.Cl.Cl
- F [1]: > 22%
- AUClast [2]: 304 µM·min
- t1/2(app) [3]: 6.4 h
- Tmax [4]: 20 h
- Activity [5]: 91.9%
- Activity [6]: 0.05%
- t1/2(app) [7]: 7.3 h
- half-life [8]: 0.402 h
- AUClast [9]: 290 µM·min
- microsomal CLint [10]: 127 µL/min/mg
- MSD [11]: 10 days
- pIC50 [12]: 4.05
- Tmax [13]: 10.7 h
- Cmax [14]: 380 nM
- Activity [15]: 59.97%
- MSD [16]: 8 days
- PPB [17]: 97.9%
- Activity [18]: 13.07%
- microsomal CLint [19]: 69.8 µL/min/mg
- Activity [20]: 70.33%
- MSD [21]: 8 days
- Activity [22]: 0.08%
- Activity [23]: 96.2%
- AUClast [24]: 1032 µM·min
- half-life [25]: 0.413 h
- Vz [26]: 18.9 L/kg
- Activity [27]: 29.76%
- microsomal CLint [28]: 71.8 µL/min/mg
- Tmax [29]: 4.13 h
- Activity [30]: 24.38%
- PPB [31]: 96.7%
